Data set [1] in a line: In vitro release rate from vaginal rings. The following applies: for in vitro release rate: vaginal ring, 20% load W/W, redistilled water, 37 C. The class given is physicochemical. Here is the method: Thread was used to suspend the rings prepared in example 1 individually in 500 mL wide mouth polyethylene bottles with screw caps. 400 mL of redistilled water was added, and the bottles were placed in a shaking water bath at 37 C. The bath was set to make 100 one-inch strokes per minute. The bathing solution was changed every 24 hours. The CDB-2914 concentration in the aqueous medium was measured via HPLC to determine the release rate of CDB-2914.
Using the same in vitro release rate analysis, vaginal rings were prepared containing either CDB-2914 (20% load, W/W) or mifepristone (20% load, W/W) with several different diameters of silicone tubes, and with tubes containing 18% ethylene vinyl acetate (EVA) as a rate-limiting layer. The rings were prepared by mixing CDB-2914 in a silicone elastomer matrix that was filled into a silicone tube. Upon polymerization, tube was cut into a 16 cm length and the two ends were joined with medical adhesive to form a ring. This vaginal ring has an inner layer of silicone rubber and active agent, and an outer, rate limiting layer. With a silicone tube containing 18% EVA, CDB-2914 was released at the rate of about 96 μg/ring/day, whereas the release of mifepristone was negligible. Using silicone tube C, CDB-2914 was diffused out at more than a 3-fold higher rate than mifepristone (160 μg/ring/day vs. 48 μg/ring/day).

Data set [2] in a line: Water solubility. The class given is physicochemical.
A short description of data set [3]: Pharmacokinetic study of vaginal rings in women (serum levels by radioimmunoassay and LC/MS). In kind it is in vivo. Here is the method: A pharmacokinetic study was conducted abroad in two clinics. Radioimmunoassay and liquid chromatography/mass spectroscopic method (LC/MS) were used to measure the serum levels of CDB-2914 and its immunoreactive metabolites. […] After insertion of the ring into the subjects, CDB-2914 was absorbed into the blood stream, increased continuously and reached a plateau at approximately 7 days post-insertion (2-3 ng/mL). Serum levels decreased upon removal of ring at Day 29 (See FIGS. 5A and 5B).

[4] abbreviates: silicone tube containing 18% EVA as rate-limiting layer.

With `CC#C[C@]1(O)CC[C@H]2[C@@H]3CCC4=CC(=O)CCC4=C3[C@@H](c3ccc(N(C)C)cc3)C[C@@]21C` [mifepristone, reference compound], the “in vitro release rate” value in data set [1] (silicone tube C) was 48 μg/ring/day; in data set [1] (setting [4]), “negligible”.

Turning to `CC(=O)O[C@]1(C(C)=O)CC[C@H]2[C@@H]3CCC4=CC(=O)CCC4=C3[C@@H](c3ccc(N(C)C)cc3)C[C@@]21C` [CDB-2914, 17α-acetoxy-11β-(4-N,N-dimethylaminophenyl)-19-norpregna-4,9-diene-3,20-dione], the water solubility result in data set [2] is given as “not water soluble”. In data set [1] (silicone tube C), the “release rate relative to mifepristone” value is reported as greater than 3 fold and the “in vitro release rate” value stood at 160 μg/ring/day. Also, the “in vitro release rate” value in data set [1] (setting [4]) is given as “about 96 μg/ring/day”. For the same compound, the “serum levels upon removal of ring” value in data set [3] (ring removed at Day 29) is given as “decreased”. Besides, in data set [3] (vaginal ring), the “bursting release immediately after insertion of the rings” value is reported as “No bursting release”, the “serum concentration compared to Nestorone (NES)” value is given as “higher than that of Nestorone” and the “time to reach serum plateau” value is “approximately 7 days post-insertion”. Besides, in data set [3] (vaginal ring, plateau at approximately 7 days post-insertion), the “serum level at plateau” value is 2 to 3 ng/mL.

The record behind these values is patent publication US8865200B2, “Sustained release compositions containing progesterone receptor modulators” (Laboratoire HRA Pharma, priority 2004, dated 2014).
